Results as given in US9066518B2, “Heterocyclic compounds as pesticides” (Bayer CropScience AG, priority 2009, dated 2015).
Where two headings read alike, the source gives them in different places.

Assays:
[1] = test system: green peach aphid (Myzus persicae); assay: Myzus test (spray treatment); format: in vivo; conditions: foliar, 144 h, read-out: activity (effect in %, aphids killed)
Procedure: Solvents: 78 parts by weight of acetone
• 1.5 parts by weight of dimethylformamide Emulsifier 0.5 part by weight of alkylaryl polyglycol ether
To produce a suitable preparation of active compound, 1 part by weight of active compound is mixed with the stated amounts of solvents and emulsifier, and the concentrate is diluted with emulsifier-containing water to the desired concentration. Discs of leaves of Chinese cabbage (Brassica pekinensis) which are infested by all stages of the green peach aphid (Myzus persicae) are sprayed with an active compound preparation of the desired concentration.
After 6 days, the effect in % is determined. 100% means that all aphids have been killed; 0% means that none of the aphids has been killed.

[2] = logP determination (neutral / HCOOH); conditions: for chromatographic logP: HCOOH (formic acid)
[3] = application rate 500 g/ha, after 6 days, Chinese cabbage leaf discs

| logP ([2]; logP (neutral), neutral) | chromatographic logP ([2]; logP (HCOOH), HCOOH) | Structure (SMILES) | pest or weed control at 500 g/ha [1, 3] | further results |
| --- | --- | --- | --- | --- |
| – | – | c1cnc(-c2cccc(-c3cnn(-c4cccnc4)c3)n2)nc1 [Example 1, 2-[6-(1-Pyridin-3-yl-1H-pyrazol-4-yl)pyridin-2-yl]pyrimidine] | – | pest or weed control at 500 g/ha ([1]; in Brassica rapa): 100%; chromatographic logP (physchem): 1.36; logP (physchem): 1.52 |
| 1.69 | – | COCC1(c2cccc(-c3cnn(-c4cccnc4)c3)n2)OCCCO1 [Example 49] | 100% | – |
| – | 2.98 | FC(F)(F)c1ccc(-c2cnn(-c3cccnc3)c2)cc1 [Example 50] | 90% | – |
| – | 2.71 | Clc1ccc(-c2cnn(-c3cccnc3)c2)cc1 [Example 51] | 90% | – |
| – | 1.63 | c1cncc(-n2cc(-c3cccc(-n4nccn4)n3)cn2)c1 [Example 54] | 100% | – |
| – | 1.4 | c1cncc(-n2cc(-c3cccc(C4=NOCCO4)n3)cn2)c1 [Example 55] | – | pest or weed control at 100 g/ha ([1]; application rate 100 g/ha, after 6 days, Chinese cabbage leaf discs): 100% |
| – | 1.31 | CS(=O)(=O)c1cccc(-c2cnn(-c3cccnc3)c2)n1 [Example 56] | 100% | – |
| – | 2.12 | O=C(NCC(F)(F)F)c1cccc(-c2cnn(-c3cccnc3)c2)n1 [Example 57] | 100% | – |
| 1.68 | 1.54 | CN1CCOC(c2cccc(-c3cnn(-c4cccnc4)c3)n2)=N1 [Example 58] | 100% | – |
| 3.14 | 3.1 | Fc1cncc(-n2cc(-c3cccc(C(F)(F)F)n3)cn2)c1 [Example 59] | 100% | – |
| 2.12 | 1.97 | c1cncc(-n2cc(-c3cccc(C4OCC5(CC5)CO4)n3)cn2)c1 [Example 60] | 100% | – |
| – | 1.68 | c1cncc(-n2cc(-c3cccc(-n4ccnn4)n3)cn2)c1 [Example 61] | 90% | – |
| – | 2.16 | c1cncc(-n2cc(-c3cccc(-c4noc(C5CC5)n4)n3)cn2)c1 [Example 62] | 100% | – |
| – | 2.02 | FC(F)c1cccc(-c2cnn(-c3cccnc3)c2)n1 [Example 63] | 100% | – |
| – | 1.14 | c1cncc(-n2cc(-c3cccc(-c4nc[nH]n4)n3)cn2)c1 [Example 64] | 100% | – |
| – | 3.22 | ClC1(c2cccc(-c3cnn(-c4cccnc4)c3)n2)CC1 [Example 65] | 90% | – |
| 3.22 | – | CC(C)C(F)(F)c1cccc(-c2cnn(-c3cccnc3)c2)n1 [Example 66] | 100% | – |
| 2.84 | – | CC(C)C(=O)c1cccc(-c2cnn(-c3cccnc3)c2)n1 [Example 67] | 100% | – |
| 1.56 | 1.51 | c1cc(-c2cnn(-c3cncnc3)c2)nc(C2OCCCO2)c1 [Example 68] | 100% | – |
| – | 1.78 | CC1(c2cccc(-c3cnn(-c4cccnc4)c3)n2)OCCCO1 [Example 69] | 100% | – |

| logP ([2]; logP (neutral), neutral) | chromatographic logP ([2]; logP (HCOOH), HCOOH) | Structure (SMILES) | pest or weed control at 500 g/ha [1, 3] | further results |
| --- | --- | --- | --- | --- |
| – | 1.66 | Cc1nc(-c2cccc(-c3cnn(-c4cccnc4)c3)n2)no1 [Example 70] | 100% | – |
| – | 2.37 | CC1CC(C)OC(c2cccc(-c3cnn(-c4cccnc4)c3)n2)O1 (stereo not shown) [Example 71] | 100% | – |
| – | 2.13 | CC1OC(c2cccc(-c3cnn(-c4cccnc4)c3)n2)OC1C (stereo not shown) [Example 72] | 100% | logP (HCOOH) ([2]; HCOOH): 2.09 |
| 2.13 | 2.12 | Fc1cncc(-n2cc(-c3cccc(C4OCCCO4)n3)cn2)c1 [Example 73] | 100% | – |
| – | 2.77 | FC(F)(F)c1nc(-c2cccc(-c3cnn(-c4cccnc4)c3)n2)no1 [Example 74] | 100% | – |
| – | 1.9 | C=C1COC(c2cccc(-c3cnn(-c4cccnc4)c3)n2)OC1 [Example 75] | 100% | – |
| 1.69 | 1.57 | c1cncc(-n2cc(-c3cccc(-c4ncco4)n3)cn2)c1 [Example 76] | 100% | – |
| – | 2.51 | Cc1ccn(-c2cccc(-c3cnn(-c4cccnc4)c3)n2)n1 [Example 77] | 100% | – |
| – | 1.49 | CC(=O)NC(NO)c1cccc(-c2cnn(-c3cccnc3)c2)n1 (stereo not shown) [Example 78] | 100% | – |
| – | 2.59 | Cc1cnn(-c2cccc(-c3cnn(-c4cccnc4)c3)n2)c1 [Example 79] | 100% | – |
| – | 2.23 | CCOc1cc(OCC)nc(-c2nccc(-c3cnn(-c4cccnc4)c3)n2)n1 [Example 82] | 100% | – |
| – | 1.51 | CN(C)C(=O)c1nc(-c2cnn(-c3cccnc3)c2)cs1 [Example 83] | 100% | – |
| 1.45 | 0.9 | c1cncc(-n2cc(-c3cccc(C4=NCCO4)n3)cn2)c1 [Example 84] | 100% | – |
| – | – | COCC(=O)c1cccc(-c2cnn(-c3cccnc3)c2)n1 [Example 85, 2-Methoxy-1-[6-(1-pyridin-3-yl-1H-pyrazol-4-yl)pyridin-2-yl]ethanone] | 100% | logP ([2]; HCOOH, logP (HCOOH)): 1.66 |
| 1.3 | 0.29 | Nc1cccc(-c2cnn(-c3cccnc3)c2)n1 [Example 86] | 100% | – |
| 1.69 | 1.53 | O=C(NCC(F)(F)F)c1ccc(-c2cnn(-c3cccnc3)c2)nc1 [Example 87] | 90% | – |
| – | 1.91 | N#Cc1cncc(-n2cc(-c3cccc(-c4ncccn4)n3)cn2)c1 [Example 88] | 100% | – |
| – | 1.37 | O=c1ccccn1-c1cccc(-c2cnn(-c3cccnc3)c2)n1 [Example 89] | 100% | – |
| 2.53 | 2.37 | c1cncc(-n2cc(-c3cccc(C4OCC5(CCC5)O4)n3)cn2)c1 (stereo not shown) [Example 90] | 100% | – |
| – | 0.84 | COC(=N)c1cccc(-c2cnn(-c3cccnc3)c2)n1 [Example 91] | 100% | – |

| logP ([2]; logP (neutral), neutral) | chromatographic logP ([2]; logP (HCOOH), HCOOH) | Structure (SMILES) | pest or weed control at 500 g/ha [1, 3] | further results |
| --- | --- | --- | --- | --- |
| 1.98 | – | COCC(F)c1cccc(-c2cnn(-c3cccnc3)c2)n1 (stereo not shown) [Example 92] | 90% | – |
| – | 1.16 | c1cnc(-c2ccnn2-c2cnn(-c3cccnc3)c2)nc1 [Example 93] | 100% | – |
| – | 1.31 | CC(=O)Nc1cccc(-c2cnn(-c3cccnc3)c2)n1 [Example 94] | 100% | – |
| – | 1.32 | c1cncc(-n2cc(-c3nccs3)cn2)c1 [Example 95] | 90% | – |
| 0.32 | 1.36 | c1cncc(-n2cc(-c3cccc(-c4nnn[nH]4)n3)cn2)c1 [Example 96] | 90% | – |
| 1.2 | 0.95 | N#CCNC(=O)c1ccc(-c2cnn(-c3cccnc3)c2)nc1 [Example 97] | 90% | – |
| – | 0.79 | c1cncc(-n2cc(-c3cc[nH]n3)cn2)c1 [Example 98, 1′-(Pyridin-3-yl)-1H,1′H-3,4′-bipyrazole] | 100% | logP (HCOOH) ([2]; HCOOH): 0.78 |
| 1.96 | 1.83 | CCOC(=O)c1cccc(-c2cnn(-c3cccnc3)c2)n1 [Example 99] | 100% | – |
| – | 0.46 | CN1CCN(C(=O)c2cccc(-c3cnn(-c4cccnc4)c3)n2)CC1 [Example 100] | 100% | – |
| 1.24 | 0.01 | c1cncc(-n2cc(-c3ccncc3)cn2)c1 [Example 101] | 100% | – |
| – | 1.64 | O=[N+]([O-])c1cnc(-n2ccc(-c3cnn(-c4cccnc4)c3)n2)nc1 [Example 102] | 100% | – |
| 2.28 | 2.21 | O=C(Nc1cccc(-c2cnn(-c3cccnc3)c2)n1)C(F)(F)F [Example 103] | 90% | – |
| – | 1.77 | Fc1cccc(-c2cnn(-c3cccnc3)c2)n1 [Example 105] | 80% | – |
| 1.59 | 0.64 | Nc1cccc(-c2cnn(-c3cncc(F)c3)c2)n1 [Example 106] | 90% | – |
| 2.38 | 2.36 | FC(F)(F)c1cccc(-c2cnn(-c3cncnc3)c2)n1 [Example 107] | 90% | – |
| – | 2.2 | N#Cc1cccc(-c2cnn(-c3cncc(F)c3)c2)n1 [Example 108] | 90% | – |
| 2.18 | 2.11 | O=C(NCC(F)(F)F)c1cnc(-c2cnn(-c3cccnc3)c2)cc1C(F)(F)F [Example 109] | 90% | – |
| – | 1.56 | O=Cc1cccc(-c2cnn(-c3cccnc3)c2)n1 [Example 110] | 80% | – |
| – | 1.37 | c1cncc(-n2cc(-c3cnn(-c4cccnc4)c3)cn2)c1 [Example 112] | 80% | – |
